Consider five compounds from paper PMC5343495 (Scientific Reports, 2017).

Data set [1] deals with T1, thrombin (Homo sapiens, UniProt P00734).
T1 construct: Thrombin, a multifunctional serine protease generated by prothrombin cleavage; purchased AnaSpec, Inc., San Jose, CA
On the set-up: method as in PMID 12646027, PMID 19674897, PMID 18674905, PMID 18289852, PMID 18052026. The settings on record: training set for pharmacophore generation; cited from earlier work.

The target of data set [2] is T2, Thrombin from human plasma (Homo sapiens, UniProt P00734).
T2 construct: Thrombin, a multifunctional serine protease generated by prothrombin cleavage; purchased Sigma-Aldrich Chemical Co. (St. Louis, MO, USA) T6884; host or cells: human plasma
Description: SPR binding affinity measurement (Biacore T200, thrombin-immobilized CM5 chip). (SPR reads the build-up and loss of mass on a sensor chip optically.)
Description: SPR binding studies were performed using a Biacore T200 biosensor system (GE Healthcare, Uppsala, Sweden).
Thrombin was diluted in 10 mM sodium acetate buffer at pH 5.0 and immobilized on a CM5 chip using an amine coupling kit. […] A total of 8419 RU of immobilized proteins was obtained. Sensor preparation and interaction analyses were performed at 25 °C in a PBS-P [10 mM phosphate buffer, 137 mM NaCl, 2.7 mM KCl, 0.05% P20 (pH 7.4)] running buffer containing 5% DMSO.
Solvent-correction procedures were included to compensate for any DMSO-related bulk refractive index variations. Reference flow cell without immobilized thrombin served as a non-specific binding control. Biacore traces were baseline subtracted and the signal was presented in sensorgrams and measured in RU. […] Equilibrium constants (KD) were calculated using the ‘affinity’ model in Biacore T200 evaluation software version 2.0.

The target in data set [3] is T1, thrombin. Put plainly: Thrombin inhibition assay (SensoLyte 520 FRET substrate kit). It counts as biochemical. The settings on record: read-out: inhibition relative to the positive control.
Description: To evaluate the thrombin-inhibitory activity of the hits, a fluorescence assay utilizing a SensoLyte 520 Thrombin Activity Assay Kit (AnaSpec, Inc., San Jose, CA) was performed following the manufacturer’s instructions. This kit contained a novel 5-FAM/QXL 520 (fluorophore/quencher pair) FRET modified substrate (approximately 6 amino acids) that can be cleaved by thrombin at the Arg-Gly (R-G) site. The FRET substrate can be cleaved into two separate fragments, resulting in the release of 5-FAM fluorescence, which can be monitored at an excitation/emission = 490 nm/520 nm[37]. […]
Ten microlitres of compound solution (300 μM in assay buffer) and 40 μL thrombin solution (0.33 μg/ml in assay buffer) were sequentially added to each well of a black, flat- bottom, non-binding 96-well plate (Corning #3650, Corning, NY). […] After incubation, the fluorescence (excitation 490 nm, emission 520 nm) of each mixture was detected with a 2104 EnVision Multilabel Reader (PerkinElmer).
For enzymatic reaction, the thrombin solution treated with vehicle buffer alone was used as negative control. […] All fluorescence readings are taken into account in relative fluorescence units (RFU). The experimental data were analyzed by GraphPad Prism software (version 5, Graphpad Software Incorporation, USA).
Data set [4] deals with T2, Thrombin from human plasma. Put plainly: SPR competitive binding assay of BBR with argatroban (ABA method, Biacore S200). To be noted: 300 μM BBR; 30, 60 or 120 μM argatroban. On the procedure: The response units were measured before the end of injection.
For a further data set, the system named is washed platelets. Put plainly: Inhibition of thrombin-induced platelet aggregation (turbidimetric method). It counts as cell-based, rabbits. To be noted: BBR 0.83, 2.50 and 7.50 μM, 5 min at 37 °C, 0.5 U/ml thrombin.
The subject of the next data set is HEK293 cells. Put plainly: Luciferase-coupled ATP quantitative assay (CellTiter-Glo cytotoxicity). It counts as cell-based. The settings on record: incubation 24, 48 or 72 hours. Background: ATP-based viability assays read luminescence as a measure of living cells.
Where [5] appears, read: Table 2, SPR, immobilized thrombin, read-out: KD.

“Also recorded” adds a separate entry of the source. Where two headings read alike, the source gives them in different places.

Description for HEK293 cells: HEK293 cells were seeded at 5.0 × 10^3 per well into 96-well clear-bottom black plates and incubated in 5% CO2 at 37 °C overnight. […] Luminescence was determined with an Envision 2100 multilabel reader to detect viability following incubation with CellTiter-Glo reagent for 15 min.
Description for washed platelets: PRP was obtained by centrifugation of collected blood at 190 g for 10 min. The platelets were isolated from PRP by centrifugation for 10 min at 650 g, resuspended and washed twice in Ca^2+-free Tyrode’s buffer (138 mM NaCl, 2.68 mM KCI, 11.9 mM NaHCO3, 0.36 mM NaH2PO4, 0.49 mM MgSO4, 5.5 mM glucose, pH7.5)[42]. Washed platelets were then resuspended in Tyrode’s buffer including 1.8 mM CaCl2 at a density of 2 × 10^7 platelets/ml.
Aggregation was initiated by the addition of 10 μL of thrombin (final concentrations of 0.5 U/ml). Aggregation was recorded at 37 °C for 5 min using a four-channel platelet aggregation analyser (LBY-NJ4, Beijing Precil Instrument Co., Ltd., China). Platelet aggregation inhibitory percentage was calculated using the following equation: Inhibitory percentage (%) = (1 − At/A0) × 100%. At is the platelet aggregation percentage of the test sample, and A0 is the platelet aggregation percentage of the control sample.

With `NC1CCC(CNC(=O)C2CCCN2C(=O)C(N)C(c2ccccc2)c2ccccc2)CC1` (centres unmarked) [CHEMBL269744], the IC50 on thrombin [1] is 0.0001 µM. Compound `O=C(O)c1cc(O)c(O)c(O)c1` [Gallic acid] displayed a Kd in data set [2] of more than 200 µM. Turning to `CC1(C)CCC[C@](C)([C@H]2CC[C@]3(C)[C@@H]2[C@H](O)C[C@@H]2[C@@]4(C)CC[C@H](O)C(C)(C)[C@@H]4[C@@H](O)C[C@]23C)O1` [Panaxatriol], in data set [2] (setting [5]), the equilibrium dissociation constant (Kd) was more than 200 µM. Still for that read-out and setting: with `O=C1c2ccccc2C(=O)c2c(O)c(O)cc(O)c21` [Hydroxyalizarin, reference compound] the figure was more than 200 µM. With `COc1ccc2cc3[n+](cc2c1OC)CCc1cc2c(cc1-3)OCO2` [BBR, Berberine], the inhibition at 30 µM on thrombin [3] is not below 50%. For the same compound, the “competitive binding with argatroban to thrombin” value in data set [4] is recorded as “could bind to the same argartroban/thrombin interaction site”. For the same compound, the “effect on thrombin-induced platelet aggregation” value in the data set with washed platelets is listed as “had the ability to inhibit thrombin-induced platelet aggregation; also recorded: significantly prevented platelet aggregation”. The cytotoxicity entry in the data set on HEK293 cells is “no significant cytotoxicity; also recorded: without cytotoxicity”.

For orientation: IC50 means the concentration needed to halve the response being measured. For orientation: Kd means the concentration at which binding is half-saturated. Usually inhibition stands for the drop in the measured response relative to a control, in per cent.
